Data: paper PMC3454376, “Salidroside Improves Behavioral and Histological Outcomes and Reduces Apoptosis via PI3K/Akt Signaling after Experimental Traumatic Brain Injury” (PLoS ONE, 2012)

Assays:
Assay in all cases: Western blot, injured cortex
Format in all cases: in vivo, mice
p-Akt Ser473 = conditions: for p-Akt Ser473 level, % of the vehicle level: 20 mg/kg ip 10 min after CCI
Procedure: (§1) Mice were anesthetized and positioned in a stereotaxic frame. LY294002 (200 nM in 0.5 µL of saline) or equal amount of physiological saline was intracerebroventricularly (icv) injected at 30 min before CCI as previously described. A 1 mm cranial burr hole was drilled into the skull. A 30-gauge needle on a Hamilton syringe was implanted into the lateral ventricle using stereotactic coordinates: 1.5 mm posterior to bregma and 1.0 mm right lateral to the midline, 2 mm in depth. LY294002 or saline was infused into the brain at a rate of 0.05 µL/min over 10 min with an infusion pump (KDS 310, KD Scientific Inc., Holliston, MA, USA), and the needle was left in place for an additional 20 min to prevent reflux. After the needle was removed, CCI procedure was conducted immediately. Sham-operated mice were infused icv with saline, but were not subjected to CCI.
(§2) Three sets of experiments were performed. The first set was to investigate the protective effects of salidroside. All animals were randomized into 1 of 3 groups (sham injury, CCI + vehicle, CCI + SALD 20). Surgery/injury, behavioral testing, and tissue analyses were performed by different individuals. Behavioral testing and tissue analyses were performed by individuals blinded to the treatment group. Salidroside (Cayman Chemical, Ann Arbor, MI, USA) dissolved in normal saline (0.25 mL) or a corresponding volume of vehicle (saline) was administered intraperitoneally 10 min following injury. Testing after injury was completed as follows: 1) behavioral testing at days 1, 4, 7, 14, 21, and 28 (n = 8–10 mice/group); 2) cresyl violet staining at day 28 (n = 9 mice/group); 3) histology, determination of brain water content, and western blot analysis at day 1 or 3 (n = 5–6 mice/group). To determine the optimal dose of salidroside, a pilot study was performed using 2 different doses (20 and 50 mg/kg) administered 10 min after injury, and neurological deficits and tissue damage were evaluated as the main outcomes. […] The second set of experiment was to assess the effect of the inhibition of PI3K/Akt with the specific PI3K inhibitor, LY294002 (Cell Signaling Technology, Danvers, MA, USA), on salidroside effects. Animals were randomized into 4 groups. Mice received either: 1) icv pretreatment of LY294002 followed by SALD 20 after CCI (S20Y group); or 2) icv pretreatment of saline (vehicle control) followed by SALD 20 after CCI (S20V group). 3) Mice were infused icv with saline and were subjected to sham injury. 4) Mice were infused icv with LY294002 and were subjected to sham injury. Testing after injury was completed as follows: 1) cresyl violet staining at day 28 (n = 6 mice/group); 2) western blot analysis at day 1 (n = 6 mice/group). The third set of experiment was performed to examine the neuroprotective time window afforded by salidroside. Mice received intraperitoneal SALD 20 or vehicle (saline) at 3 or 6 h following CCI and were sacrificed 1 day later for FJB staining and western blot analysis (n = 6 mice/group).
(§3) Brains of injured or sham animals were collected 1 day and 3 days post CCI or sham surgery, and a 4 mm coronal section from the injured area over the parietal cortex and ipsilateral hippocampus were collected. The protein samples were obtained from tissue homogenates in 300 µL of ice-cold reagent (T-PER reagent; Pierce Biotechnology, Rockford, IL, USA) with a complete mini protease inhibitor cocktail (Roche Molecular Biochemicals) centrifuged at 14000g for 30 min. Protein concentration was determined by Bradford reagent spectrophotometrically at A595. Equal amounts of protein samples were denatured in gel-loading buffer at 100°C for 5 min, and then loaded onto sodium dodecyl sulfate-polyacrylamide gels to be separated. Separated proteins were transferred to Immobilon-P membranes (Millipore, Billerica, MA, USA), blocked with the use of 5% milk in PBST and probed with primary antibodies. […]

p-Akt Thr308 = test system: p-Akt Thr308
Procedure: as §1, §2, §3

p-Bad = conditions: 20 mg/kg ip 10 min after CCI; days 1 and 3; P>0.05
Procedure: as §1, §2, §3

p-FOXO1 = conditions: 20 mg/kg ip 10 min after CCI; days 1 and 3; P>0.05
Procedure: as §1, §2, §3

[1] = 20 mg/kg ip 10 min after injury, day 1

OC[C@H]1O[C@@H](OCCc2ccc(O)cc2)[C@H](O)[C@@H](O)[C@@H]1O [SALD, salidroside]
p-Akt Ser473 level, % of the vehicle level (p-Akt Ser473; day 1, P<0.05): 200.7%
p-Akt Ser473 level, % of the vehicle level (p-Akt Ser473; day 3, P>0.05): 146.9%
increase of p-Akt Ser473 level (p-Akt Ser473; [1]): 100.7%
change of p-Akt Ser473 level (attenuated by) (p-Akt Ser473; 20 mg/kg ip 3 h after injury, day 1): 46.2%
p-Akt Thr308 level, % of the vehicle level (p-Akt Thr308; 20 mg/kg ip 10 min after CCI, day 3, P<0.05): 176.0%
increase of p-Akt Thr308 level (p-Akt Thr308; [1]): 30.3%
change of p-Akt Thr308 level (attenuated by) (p-Akt Thr308; 20 mg/kg ip 3 h after injury, day 1, not significant): 19.5%
p-Bad level versus vehicle group (p-Bad): no difference
p-FOXO1 level versus vehicle group (p-FOXO1): no difference
